Laboratory results from paper PMC8968710, “Structural insights into the substrate-bound condensation domains of non-ribosomal peptide synthetase AmbB” (Scientific Reports, 2022).

How the values were obtained:
AmbB T–C [1] = target: T1, AmbB T–C (Pseudomonas aeruginosa, UniProt Q9I1H0); test: X-ray crystallography, […] Å; LC-MS; format: binding; details: covalent; on Ser768 of T domain, L-Ala thioester near His953 of C domain; possible Ppant/Ppant-L-Ala mixture
T1 construct: T-C bidomain, residues 727-1249, GST tag cleaved (pGEX-6P-1), E. coli host, holo form made with Sfp; Ppant on Ser768

full-length AmbB = target: T2, full-length AmbB (Pseudomonas aeruginosa, UniProt Q9I1H0); test: […]-alanine aminoacylation/TCA precipitation radioassay; colorimetric pyrophosphate adenylation assay; format: biochemical; details: 5 mM ATP, 5 mM MgCl2; radioassay with labelled compound
T2 construct: full length, cleavable N-terminal SUMO tag (pET28a), NiNTA purified, E. coli host

AmbB T–C [2] = target: T1, AmbB T–C; test: X-ray crystallography, […] Å; LC-MS; format: binding; details: covalent; on Ser768 of T domain, arm in donor channel of C domain

T1 sequence (Q9I1H0 727-1249): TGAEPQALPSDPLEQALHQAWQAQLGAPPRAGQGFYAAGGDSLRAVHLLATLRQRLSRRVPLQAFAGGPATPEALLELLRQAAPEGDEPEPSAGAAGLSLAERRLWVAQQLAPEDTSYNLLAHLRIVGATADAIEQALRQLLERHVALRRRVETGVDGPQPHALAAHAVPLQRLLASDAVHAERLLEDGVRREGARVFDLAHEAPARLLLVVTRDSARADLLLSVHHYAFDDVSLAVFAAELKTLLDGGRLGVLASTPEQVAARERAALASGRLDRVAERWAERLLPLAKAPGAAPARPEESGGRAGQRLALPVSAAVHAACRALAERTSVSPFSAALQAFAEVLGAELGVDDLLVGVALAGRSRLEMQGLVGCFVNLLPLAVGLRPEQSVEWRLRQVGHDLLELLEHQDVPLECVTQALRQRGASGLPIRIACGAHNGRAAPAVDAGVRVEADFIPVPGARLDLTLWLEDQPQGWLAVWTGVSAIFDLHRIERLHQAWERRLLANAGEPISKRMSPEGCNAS
T2 sequence (Q9I1H0 whole entry): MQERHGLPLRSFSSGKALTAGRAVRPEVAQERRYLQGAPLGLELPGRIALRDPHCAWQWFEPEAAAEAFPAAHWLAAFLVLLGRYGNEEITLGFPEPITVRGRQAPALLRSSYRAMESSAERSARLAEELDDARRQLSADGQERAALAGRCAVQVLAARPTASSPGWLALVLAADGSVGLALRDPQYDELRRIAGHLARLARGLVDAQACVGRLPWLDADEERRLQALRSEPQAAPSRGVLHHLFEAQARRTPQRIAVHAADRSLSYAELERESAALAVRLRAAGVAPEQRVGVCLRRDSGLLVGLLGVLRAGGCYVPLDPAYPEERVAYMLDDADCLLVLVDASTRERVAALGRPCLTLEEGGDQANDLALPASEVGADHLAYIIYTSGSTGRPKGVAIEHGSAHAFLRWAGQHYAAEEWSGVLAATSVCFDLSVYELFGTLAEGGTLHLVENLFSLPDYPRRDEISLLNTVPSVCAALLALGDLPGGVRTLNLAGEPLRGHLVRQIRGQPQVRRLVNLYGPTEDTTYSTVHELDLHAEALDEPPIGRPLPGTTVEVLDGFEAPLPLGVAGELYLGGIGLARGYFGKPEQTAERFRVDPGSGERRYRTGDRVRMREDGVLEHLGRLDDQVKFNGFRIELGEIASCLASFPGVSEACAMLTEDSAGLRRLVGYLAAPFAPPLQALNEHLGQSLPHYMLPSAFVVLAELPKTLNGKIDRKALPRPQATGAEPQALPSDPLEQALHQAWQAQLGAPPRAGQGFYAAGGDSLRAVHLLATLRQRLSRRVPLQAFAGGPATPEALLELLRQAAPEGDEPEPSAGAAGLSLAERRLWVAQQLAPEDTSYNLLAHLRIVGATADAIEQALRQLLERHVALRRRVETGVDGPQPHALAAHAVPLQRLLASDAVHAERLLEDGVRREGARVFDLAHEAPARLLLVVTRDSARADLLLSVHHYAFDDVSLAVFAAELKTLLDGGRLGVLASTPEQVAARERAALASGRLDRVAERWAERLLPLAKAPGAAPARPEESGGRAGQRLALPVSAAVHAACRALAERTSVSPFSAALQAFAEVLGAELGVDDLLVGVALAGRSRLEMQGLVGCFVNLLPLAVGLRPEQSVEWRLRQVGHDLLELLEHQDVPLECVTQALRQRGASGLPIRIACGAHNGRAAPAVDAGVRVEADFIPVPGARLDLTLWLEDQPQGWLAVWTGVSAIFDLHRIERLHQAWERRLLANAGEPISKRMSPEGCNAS

## C[C@H](N)C(=O)SCCNC(=O)CCNC(=O)[C@H](O)C(C)(C)COP(=O)(O)O [Ppant-L-Ala]
AmbB T–C [1]
  X-ray crystallography, 2.5 Å; LC-MS: chains B and D exhibit relatively well-defined electron density for Ppant-L-Ala

## C[C@H](N)C(=O)O [L-Ala]
full-length AmbB
  14C-alanine aminoacylation/TCA precipitation radioassay; colorimetric pyrophosph: apo full-length AmbB, which activates L-Ala (Supplementary Fig. S4a)

## CC(C)(COP(=O)(O)O)[C@@H](O)C(=O)NCCC(=O)NCCS [Ppant]
AmbB T–C [2]
  X-ray crystallography, 2.2 Å; LC-MS: Structure of holo AmbB T–C with Ppant (cyan stick) covalently attached to Ser768
